According to EP0063826A2, “2-Amino-benzoic-acid derivatives, their preparation and their use as medicines or intermediates” (Dr. Karl Thomae GmbH, priority 1980, dated 1981):

System: Mäusen
Assay: Acute oral toxicity in mice (orienting)
Type: in vivo
Details: 2 000 mg/kg by gavage, group of 10, observation 14 days
Method: Die akute Toxizität wurde orientierend an Gruppen von 10 Mäusen (5 weibliche und 5 männliche Mäuse; Beobachtungszeit: 14 Tage) nach Gabe einer Dosis von 2 000 mg/kg pro Tier in Methylcellulose-Suspension per Schlundsonde bestimmt: […]

## O=C(O)c1cc(Cl)ccc1N1CCC2(CC1)OCCO2 [Substanz A, 5-Chlor-2-(1,4-dioxa-8-aza-spiroL4,6/decan-8-yl)-benzoe-säure]
  Tieren gestorben: 0 von 10
